From US10034886B2, “GLP-1 receptor modulators” (Celgene International II SÀRL, priority 2014, dated 2018) come the findings set out here.

Where two headings read alike, the source gives them in different places.

This assay deals with T1, GLP-1R (Homo sapiens, UniProt P43220).
T1 construct: host or cells: GLP-1R CRE-bla CHO-K1 cells
As to the kind of experiment: EC20 GLP-1(9-36) PAM cAMP assay: dose response of compound in the presence of fixed concentration of GLP-1(9-36). It is filed as cell-based. As to conditions: GLP-1R CRE-bla CHO-K1 cells, read-out: EC20 GLP-1(9-36) PAM EC50. In outline: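 Positive allosteric modulation read as cAMP accumulation: compound titrations (12 points) combined with an EC20 level of GLP-1(9-36) on CHO-K1 GLP-1R CRE-bla cells, IBMX present, 30 min, 37 °C, pH 7.4 buffer. Luminescence converted to cAMP via standards; non-linear fit gave EC50 and Emax.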

Setting [1] is: dose response of compound in presence of fixed concentration of GLP-1(9-36).
Setting [2] is: compound dose response with fixed concentration of GLP-1(9-36).

T1 sequence (P43220 24-463): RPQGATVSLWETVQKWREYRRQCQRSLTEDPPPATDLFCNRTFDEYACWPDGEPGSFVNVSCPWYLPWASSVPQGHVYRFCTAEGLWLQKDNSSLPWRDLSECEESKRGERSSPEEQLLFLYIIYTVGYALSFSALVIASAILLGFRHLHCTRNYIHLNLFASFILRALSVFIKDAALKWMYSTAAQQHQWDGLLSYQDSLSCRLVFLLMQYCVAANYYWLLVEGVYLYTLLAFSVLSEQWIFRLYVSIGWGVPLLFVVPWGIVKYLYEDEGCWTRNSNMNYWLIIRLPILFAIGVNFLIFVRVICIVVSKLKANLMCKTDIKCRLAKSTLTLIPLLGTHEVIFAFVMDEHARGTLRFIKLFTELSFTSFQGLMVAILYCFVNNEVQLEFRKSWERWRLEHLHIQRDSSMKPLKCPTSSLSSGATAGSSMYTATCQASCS
T1 sequence (P01275 100-127 partner limits assumed): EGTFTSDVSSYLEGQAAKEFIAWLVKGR

For the molecule `C[C@@H](NC(=O)[C@H](Cc1ccc(-c2ncc(-c3ccc(-c4ccc(C(F)(F)F)cc4)cc3F)cn2)cc1)NC(=O)c1ccc(C(C)(C)C)s1)C(=O)O` [Compound 1174], under setting [1], the half-maximal effective concentration (EC50) is below 800 nM.
`CC[C@H]1CC[C@H](c2ccc(N3CCN(c4ccc(C[C@H](NC(=O)c5ccc(C(C)(C)C)s5)C(=O)O)cc4)CC3)cc2)CC1` [Compound 1059, (S)-2-(5-(tert-butyl)thiophene-2-carboxamido)-3-(4-(4-(4-((1r,4r)-4-ethylcyclohexyl)phenyl)piperazin-1-yl)phenyl)propanoic acid]: the EC50 under setting [1] lay in the range of 5000 to 10000 nM.
As for `C[C@@H](NC(=O)[C@H](Cc1ccc(-c2ncc(-c3ccc(-c4cccc(F)c4)cc3)cn2)cc1)NC(=O)c1ccc(C(C)(C)C)s1)C(=O)O` [Compound 1134], the EC50 under setting [1] was 800 to 2500 nM.
With `CCCC1CCC(C2CCN(c3cnc(-c4ccc(C[C@H](NC(=O)c5ccc(C(C)(C)C)s5)C(=O)N5CC(C(=O)O)C5)cc4)nc3)C(=O)C2)CC1` (stereo partly shown) [Compound 1496], the EC50 under setting [2] was 800 to 2500 nM.
`CCOc1cc(-c2cnc(-c3ccc(C[C@H](NC(=O)c4ccc(C(C)(C)C)s4)C(=O)N[C@H](C)C(=O)O)cc3)nc2)ccc1OC(F)(F)F` [Compound 1004]: under setting [1], the EC50 fell in the range of 800 to 2500 nM.
Same read-out and setting: the value for `CC(C)(C)c1ccc(C(=O)N[C@@H](Cc2ccc(-c3ncc(-c4nc(-c5ccc(C(C)(C)C)cc5)no4)cn3)cc2)C(=O)NCCC(=O)O)cc1` [Compound 745] was 800 to 2500 nM.
For `C[C@@H](NC(=O)[C@H](Cc1ccc(-c2ncc(-c3ccc4c(c3)Cc3ccccc3-4)cn2)cc1)NC(=O)c1ccc(C(C)(C)C)s1)C(=O)O` [Compound 1299], under setting [2], the EC50 is 800 to 2500 nM.
Consider `CCCCCCCOc1ccc(-c2cnc(-c3ccc(C[C@H](NC(=O)c4ccc(C(C)(C)C)cc4)C(=O)NC(C(=O)O)C4CCOCC4)cc3)nc2)cc1` (stereo partly shown) [Compound 540], for which the EC50 under setting [1] is below 800 nM.
On the same count and under the same terms, the value for `CCCCCCCOc1ccc(-c2cnc(-c3ccc(C[C@H](NC(=O)c4ccc(C(C)(C)C)s4)C(=O)N4CC(C(N)=O)C4)cc3)nc2)cc1` [Compound 972] was 5000 to 10000 nM.
In the case of `C[C@@H](NC(=O)[C@H](Cc1ccc(-c2ncc(/C=C/c3cccc(C(F)(F)F)c3)cn2)cc1)NC(=O)c1ccc(C(C)(C)C)s1)C(=O)O` [Compound 1251], the EC50 under setting [2] was in the range of 5000 to 10000 nM.
On the same count and under the same terms, the value for `CCC[C@H]1CC[C@H](C2CCN(c3cnc(-c4ccc(C[C@H](NC(=O)c5ccc(C(C)(C)C)s5)C(=O)NCC(=O)O)cc4)nc3)CC2)CC1` [Compound 1461] was below 800 nM; that for `CC[C@H]1CC[C@H](c2ccc(-c3cnc(-c4ccc(C[C@@H](NC(=O)c5ccc(C(C)(C)C)s5)C(=O)N[C@@H](C)C(=O)O)cc4)nc3)cc2)CC1` [Compound 1270] was 800 to 2500 nM; that for `C[C@@H](NC(=O)[C@H](Cc1ccc(-c2ncc(-c3ccc4c(c3)C(=O)c3ccccc3-4)cn2)cc1)NC(=O)c1ccc(C(C)(C)C)s1)C(=O)O` [Compound 1290] was 2500 to 5000 nM.
Take `CC(C)(C)c1ccc(C(=O)N[C@@H](Cc2ccc(-c3ncc(-c4ccc(-c5ccc(C(F)(F)F)cc5)cc4F)cn3)cc2)C(=O)N2CC(C(=O)O)C2)s1` [Compound 1218]: the EC50 under setting [2] is below 800 nM.
Regarding `CC(C)(C)c1ccc(C(=O)N[C@@H](Cc2ccc(-c3ncc(-c4ccc(OC5CCCC5)cc4)cn3)cc2)C(=O)NC(C(=O)O)C(O)c2ccccc2)s1` (stereo partly shown) [Compound 929], the EC50 under setting [1] is 5000 to 10000 nM.
For `Cc1ccc(-c2ccc(-c3cnc(-c4ccc(C[C@H](NC(=O)c5ccc(C(C)(C)C)cc5)C(=O)N[C@H](C)C(=O)O)cc4)nc3)cc2)cc1` [Compound 727], the EC50 under setting [1] lay in the range of 2500 to 5000 nM.
Consider `CCCCCCCOc1ccc(-c2cnc(-c3ccc(C[C@H](NC(=O)c4ccc(C(C)(C)C)s4)C(=O)N[C@H](C(=O)O)[C@@H](N)c4ccccc4)cc3)nc2)cc1` [Compound 883], for which the EC50 under setting [1] fell in the range of 5000 to 10000 nM.
On the same count and under the same terms, the value for `CC(C)(C)c1ccc(C(=O)N[C@@H](Cc2ccc(-c3ncc(-c4nc(-c5cccc(Oc6ccccc6)c5)no4)cn3)cc2)C(=O)NCCC(=O)O)cc1` [Compound 757] was 800 to 2500 nM.
Take `Cc1cccc(-c2ccc(-c3cnc(-c4ccc(C[C@H](NC(=O)c5ccc(C(C)(C)C)s5)C(=O)N[C@H](C)C(=O)O)cc4)nc3)cc2)c1` [Compound 1285]: the EC50 under setting [2] was below 800 nM.
Turning to `CCCCCCCOc1ccc(-c2cnc(-c3ccc(C[C@H](NC(=O)c4ccc(C(C)(C)C)s4)C(=O)N[C@@H](CC(=O)O)C(=O)N4CCCCC4)cc3)nc2)cc1` [Compound 529], the EC50 under setting [1] is below 800 nM.
As to `C/C=C/CCCOc1ccc(-c2cnc(-c3ccc(C[C@H](NC(=O)c4ccc(C(C)C)cc4)C(=O)NCCC(=O)O)cc3)nc2)cc1` [Compound 714], under setting [1], the EC50 was 2500 to 5000 nM.
For the molecule `CCC[C@H]1CC[C@H](C2CCN(c3cnc(-c4ccc(CC(NC(=O)c5ccc(C(C)(C)C)s5)C(=O)NS(=O)(=O)CCNC(=O)OC(C)(C)C)cc4)nc3)CC2)CC1` (stereo partly shown) [Compound 1548], under setting [2], the EC50 is below 800 nM.
For the molecule `CC(C)(C)CCCOc1ccc(-c2cnc(-c3ccc(C[C@H](NC(=O)c4ccc(C(C)(C)C)s4)C(=O)NC(C(=O)O)C(O)c4ccccc4)cc3)nc2)cc1` (stereo partly shown) [Compound 937], under setting [1], the EC50 lay in the range of 800 to 2500 nM.
Same read-out and setting: the value for `CCCCCCCOc1ccc(-c2cnc(-c3ccc(C[C@H](NC(=O)c4ccc(C(C)(C)C)s4)C(=O)NC(C(=O)O)c4ccc(OC)cc4)cc3)nc2)cc1` (stereo partly shown) [Compound 619] was 800 to 2500 nM.
For the molecule `CCC[C@H]1CC[C@H](C2CCN(c3cnc(-c4ccc(C[C@H](NC(=O)c5ccc(C(C)C)cc5)C(=O)N5CC(C(=O)O)C5)cc4)nc3)CC2)CC1` [Compound 1536], under setting [2], the EC50 is below 800 nM.
On to `C[C@@H](NC(=O)[C@H](Cc1ccc(-c2ncc(-c3ccc(OCc4ccccc4)nc3)cn2)cc1)NC(=O)c1ccc(C(C)(C)C)s1)C(=O)O` [Compound 1040], for which the EC50 under setting [1] lay in the range of 5000 to 10000 nM.
On the same count and under the same terms, the value for `CCCCCCCOc1ccc(-c2cnc(-c3ccc(C[C@H](NC(=O)c4ccc(C(C)(C)C)s4)C(=O)NS(C)(=O)=O)cc3)nc2)cc1` [Compound 419] was below 800 nM; that for `CCCCCCCOc1ccc(-c2cnc(-c3ccc(C[C@H](NC(=O)c4ccc(C(C)(C)C)s4)C(=O)NC[C@@H]4CCNC4)cc3)nc2)cc1` [Compound 439] was 2500 to 5000 nM.
With `CCCCCCCOc1ccc(-c2cnc(-c3ccc(C[C@H](NC(=O)c4ccc(C(C)(C)C)cc4)C(=O)NC(C)CC(=O)O)cc3)nc2)cc1` (stereo partly shown) [Compound 537], the EC50 under setting [1] lay within 5000 to 10000 nM.
As for `CCc1ccc(C#Cc2cnc(-c3ccc(C[C@H](NC(=O)c4ccc(C(C)(C)C)s4)C(=O)N[C@H](C)C(=O)O)cc3)nc2)cc1` [Compound 1276], the EC50 under setting [2] is 800 to 2500 nM.
Take `Cc1cccc(NC(=O)c2cccc(-c3cnc(-c4ccc(C[C@H](NC(=O)c5ccc(C(C)(C)C)s5)C(=O)N[C@H](C)C(=O)O)cc4)nc3)c2)c1C` [Compound 996]: the EC50 under setting [1] was in the range of 800 to 2500 nM.
In the case of `CCCCCCCOc1ccc(-c2cnc(-c3ccc(C[C@H](NC(=O)c4ccc(C(C)(C)C)cc4)C(=O)NCC(C(=O)O)C4CCOCC4)cc3)nc2)cc1` (stereo partly shown) [Compound 555], the EC50 under setting [1] was in the range of 2500 to 5000 nM.
In the case of `CC(C)Oc1ccc(-c2cnc(-c3ccc(C[C@H](NC(=O)c4ccc(C(C)(C)C)s4)C(=O)NC(C(=O)O)C(O)c4ccccc4)cc3)nc2)cc1` (stereo partly shown) [Compound 931], under setting [1], the EC50 was 2500 to 5000 nM.
The same measure, in the same setting: the value for `CCCCCCCOc1ccc(-c2cnc(-c3ccc(C[C@H](NC(=O)c4ccc(C(C)(C)C)s4)C(=O)N[C@@H](CC(=O)O)C(=O)N4CCNCC4)cc3)nc2)cc1` [Compound 534] was 800 to 2500 nM; that for `CCCCCCCOc1ccc(-c2cnc(-c3ccc(C[C@H](NC(=O)c4ccc(C(C)(C)C)c(OC)c4)C(=O)N[C@H](C)C(=O)O)cc3)nc2)cc1` [Compound 837] was below 800 nM.
The same measure, in the same setting: the same measure for `CCCCCCCOc1ccc(-c2cnc(-c3ccc(C[C@H](NC(=O)c4sc(C(C)(C)C)cc4C)C(=O)N4CC[C@H](C(=O)O)C4)cc3)nc2)cc1` [Compound 866]: 2500 to 5000 nM; for `C[C@@H](NC(=O)[C@H](Cc1ccc(-c2ncc(-c3ccc(-c4ccc(OC(F)(F)F)cc4)cc3F)cn2)cc1)NC(=O)c1ccc(C(C)(C)C)s1)C(=O)O` [Compound 1171]: below 800 nM.
On the same count and under the same terms, the value for `C[C@@H](NC(=O)[C@H](Cc1ccc(-c2ncc(-c3cc(OC(F)(F)F)ccc3F)cn2)cc1)NC(=O)c1ccc(C(C)(C)C)s1)C(=O)O` [Compound 1026] was 2500 to 5000 nM; that for `CCCCCCCOc1ccc(-c2cnc(-c3ccc(C[C@H](NC(=O)c4ccc(C(C)C)cc4)C(=O)NCCC(=O)O)cc3)nc2)cc1` [Compound 446] was 800 to 2500 nM.
For `Cc1cc(-c2cnc(-c3ccc(C[C@H](NC(=O)c4ccc(C(C)(C)C)s4)C(=O)N[C@H](C)C(=O)O)cc3)nc2)ccc1-c1ccccc1` [Compound 1129], the EC50 under setting [1] was in the range of 800 to 2500 nM.
On to `CC[C@H]1CC[C@H](c2ccc(-c3cnc(-c4ccc(C[C@H](NC(=O)c5ccc(C6CC6)cc5)C(=O)N5CC(C(=O)O)C5)cc4)nc3)cc2)CC1` [Compound 1158], for which, under setting [1], the EC50 is below 800 nM.
Still for that read-out and setting: the value for `CCCCCCOc1ccc(-c2cnc(-c3ccc(C[C@H](NC(=O)c4ccc(C(C)(C)C)s4)C(=O)N4CC[C@H](C(=O)O)C4)cc3)nc2)cc1` [Compound 763] was 800 to 2500 nM; that for `CCCCCCCOc1ccc(-c2cnc(-c3ccc(C[C@H](NC(=O)c4ccc(C(C)(C)C)s4)C(=O)N[C@@H](CC(=O)N(C)CCN)C(=O)O)cc3)nc2)cc1` [Compound 519] was 800 to 2500 nM.
Turning to `CC(C)CCCOc1ccc(-c2cnc(-c3ccc(C[C@H](NC(=O)c4ccc(CC(C)C)cc4)C(=O)N4CC(C(=O)O)C4)cc3)nc2)cc1` [Compound 1236], the EC50 under setting [2] fell in the range of 800 to 2500 nM.
In the case of `COc1ccccc1-c1ccc(-c2cnc(-c3ccc(C[C@H](NC(=O)c4ccc(C(C)(C)C)s4)C(=O)N[C@H](C)C(=O)O)cc3)nc2)cc1` [Compound 1012], the EC50 under setting [1] was 2500 to 5000 nM.
As for `CC[C@H]1CC[C@H](c2ccc(-c3cnc(-c4ccc(C[C@H](NC(=O)c5ccc(C(F)(F)F)cc5)C(=O)O)cc4)nc3)cc2)CC1` [Compound 1374], the half-maximal effective concentration (EC50) under setting [2] lay in the range of 800 to 2500 nM.

A word on the EC50: it is the midpoint of the concentration-response curve.
